Experiments:
Assay in all cases: relative viability (nuclei count vs DMSO), 5 days (fraction); higher = more cells survive
H3255 = system: H3255
Procedure, shortened: (§1)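 Relative viability divides the nuclei count in treated wells by that in vehicle wells. Lung cancer cell lines were seeded in 1536-well plates, dosed by pin tool the next day, and fixed and stained after 5 days in one step with final 0.05% Triton X-100, 1% formaldehyde and 1 ug/ml Hoechst. Dosing was a single drug or a fixed anchor-drug dose plus five library-drug doses (not always all listed) in √10 steps, and values are medians of duplicate plates imaged at 4×.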

NCI-H2009 = system: NCI-H2009
Procedure, shortened: as §1

ABC-1 = system: ABC-1
Procedure, shortened: as §1

ChaGo-K-1 = system: ChaGo-K-1
Procedure, shortened: as §1

NCI-H441 = system: NCI-H441
Procedure, shortened: as §1

CAL-12T = system: CAL-12T
Procedure, shortened: as §1

NCI-H322M = system: NCI-H322M
Procedure, shortened: as §1

NCI-H1792 = system: NCI-H1792
Procedure, shortened: as §1

NCI-H2342 = system: NCI-H2342
Procedure, shortened: as §1

EKVX = system: EKVX
Procedure, shortened: as §1

NCI-H1975 = system: NCI-H1975
Procedure, shortened: as §1

NCI-H460 = system: NCI-H460
Procedure, shortened: as §1

NCI-H2228 = system: NCI-H2228
Procedure, shortened: as §1

NCI-H1993 = system: NCI-H1993
Procedure, shortened: as §1

HCC-366 = system: HCC-366
Procedure, shortened: as §1

COR-L 105 = system: COR-L 105
Procedure, shortened: as §1

SK-MES-1 = system: SK-MES-1
Procedure, shortened: as §1

NCI-H2085 = system: NCI-H2085
Procedure, shortened: as §1

NCI-H1355 = system: NCI-H1355
Procedure, shortened: as §1

EPLC-272H = system: EPLC-272H
Procedure, shortened: as §1

HCC-827 = system: HCC-827
Procedure, shortened: as §1

NCI-H2087 = system: NCI-H2087
Procedure, shortened: as §1

With `Cc1cn(-c2cc(NC(=O)c3ccc(C)c(Nc4nccc(-c5cccnc5)n4)c3)cc(C(F)(F)F)c2)cn1` [Nilotinib] + CC(=O)c1c(C)c2cnc(Nc3ccc(N4CCNCC4)cn3)nc2n(C2CCCC2)c1=O [Palbociclib] (partner 0.5 µM) as the molecule, how does the relative viability (H3255; first compound 0.001 µM) read?
Its relative viability is 0.317.

And the relative viability (H3255; first compound 0.003162 µM)?
Its relative viability is 0.286.

And the relative viability (H3255; first compound 0.01 µM)?
The relative viability was 0.313.

What about the relative viability (H3255; first compound 0.03162 µM) of the same molecule?
Its relative viability is 0.308.

What about the relative viability (H3255; first compound 0.1 µM) of the same molecule?
Its relative viability is 0.287.

What about the relative viability (NCI-H2009; first compound 0.001 µM) of the same molecule?
The relative viability was 0.21.

What about the relative viability (NCI-H2009; first compound 0.003162 µM) of the same molecule?
Its relative viability is 0.191.

And the relative viability (NCI-H2009; first compound 0.01 µM)?
The relative viability was 0.193.

What about the relative viability (NCI-H2009; first compound 0.03162 µM) of the same molecule?
Its relative viability is 0.211.

What about the relative viability (NCI-H2009; first compound 0.1 µM) of the same molecule?
The relative viability was 0.191.

What about the relative viability (ABC-1; first compound 0.001 µM) of the same molecule?
Its relative viability is 0.634.

And the relative viability (ABC-1; first compound 0.003162 µM)?
Its relative viability is 0.697.

What about the relative viability (ABC-1; first compound 0.01 µM) of the same molecule?
The relative viability was 0.775.

What about the relative viability (ABC-1; first compound 0.03162 µM) of the same molecule?
The relative viability was 0.699.

And the relative viability (ABC-1; first compound 0.1 µM)?
The relative viability was 0.466.

And the relative viability (ChaGo-K-1; first compound 0.001 µM)?
The relative viability was 0.898.

And the relative viability (ChaGo-K-1; first compound 0.003162 µM)?
The relative viability was 1.25.

What about the relative viability (ChaGo-K-1; first compound 0.01 µM) of the same molecule?
Its relative viability is 1.06.

What about the relative viability (ChaGo-K-1; first compound 0.03162 µM) of the same molecule?
Its relative viability is 0.873.

What about the relative viability (ChaGo-K-1; first compound 0.1 µM) of the same molecule?
The relative viability was 0.894.

And the relative viability (NCI-H441; first compound 0.001 µM)?
The relative viability was 0.204.

And the relative viability (NCI-H441; first compound 0.003162 µM)?
The relative viability was 0.209.

And the relative viability (NCI-H441; first compound 0.01 µM)?
Its relative viability is 0.197.

And the relative viability (NCI-H441; first compound 0.03162 µM)?
Its relative viability is 0.201.

And the relative viability (NCI-H441; first compound 0.1 µM)?
The relative viability was 0.192.

What about the relative viability (CAL-12T; first compound 0.001 µM) of the same molecule?
The relative viability was 0.593.

And the relative viability (CAL-12T; first compound 0.003162 µM)?
Its relative viability is 0.438.

What about the relative viability (CAL-12T; first compound 0.01 µM) of the same molecule?
Its relative viability is 0.473.

What about the relative viability (CAL-12T; first compound 0.03162 µM) of the same molecule?
Its relative viability is 0.357.

And the relative viability (CAL-12T; first compound 0.1 µM)?
Its relative viability is 0.299.

What about the relative viability (NCI-H322M; first compound 0.001 µM) of the same molecule?
The relative viability was 0.512.

What about the relative viability (NCI-H322M; first compound 0.003162 µM) of the same molecule?
Its relative viability is 0.461.

And the relative viability (NCI-H322M; first compound 0.01 µM)?
Its relative viability is 0.534.

What about the relative viability (NCI-H322M; first compound 0.03162 µM) of the same molecule?
Its relative viability is 0.527.

What about the relative viability (NCI-H322M; first compound 0.1 µM) of the same molecule?
Its relative viability is 0.602.

What about the relative viability (NCI-H1792; first compound 0.001 µM) of the same molecule?
The relative viability was 0.582.

What about the relative viability (NCI-H1792; first compound 0.003162 µM) of the same molecule?
The relative viability was 0.684.

And the relative viability (NCI-H1792; first compound 0.01 µM)?
Its relative viability is 0.732.

What about the relative viability (NCI-H1792; first compound 0.1 µM) of the same molecule?
Its relative viability is 0.89.

And the relative viability (NCI-H2342; first compound 0.001 µM)?
The relative viability was 0.508.

What about the relative viability (NCI-H2342; first compound 0.003162 µM) of the same molecule?
Its relative viability is 0.559.

What about the relative viability (NCI-H2342; first compound 0.01 µM) of the same molecule?
The relative viability was 0.49.

What about the relative viability (NCI-H2342; first compound 0.03162 µM) of the same molecule?
The relative viability was 0.489.

And the relative viability (NCI-H2342; first compound 0.1 µM)?
Its relative viability is 0.478.

And the relative viability (EKVX; first compound 0.001 µM)?
Its relative viability is 0.372.

What about the relative viability (EKVX; first compound 0.003162 µM) of the same molecule?
The relative viability was 0.492.

What about the relative viability (EKVX; first compound 0.01 µM) of the same molecule?
Its relative viability is 0.479.

What about the relative viability (EKVX; first compound 0.03162 µM) of the same molecule?
The relative viability was 0.379.

What about the relative viability (EKVX; first compound 0.1 µM) of the same molecule?
Its relative viability is 0.62.

And the relative viability (NCI-H1975; first compound 0.001 µM)?
Its relative viability is 0.498.

And the relative viability (NCI-H1975; first compound 0.003162 µM)?
Its relative viability is 0.608.

What about the relative viability (NCI-H1975; first compound 0.01 µM) of the same molecule?
Its relative viability is 0.653.

What about the relative viability (NCI-H1975; first compound 0.03162 µM) of the same molecule?
Its relative viability is 0.345.

What about the relative viability (NCI-H1975; first compound 0.1 µM) of the same molecule?
The relative viability was 0.226.

What about the relative viability (NCI-H460; first compound 0.001 µM) of the same molecule?
The relative viability was 0.101.

And the relative viability (NCI-H460; first compound 0.003162 µM)?
The relative viability was 0.0788.

What about the relative viability (NCI-H460; first compound 0.01 µM) of the same molecule?
Its relative viability is 0.144.

What about the relative viability (NCI-H460; first compound 0.03162 µM) of the same molecule?
The relative viability was 0.148.

What about the relative viability (NCI-H460; first compound 0.1 µM) of the same molecule?
The relative viability was 0.134.

What about the relative viability (NCI-H2228; first compound 0.001 µM) of the same molecule?
The relative viability was 0.677.

And the relative viability (NCI-H2228; first compound 0.003162 µM)?
The relative viability was 0.924.

And the relative viability (NCI-H2228; first compound 0.01 µM)?
Its relative viability is 0.935.

And the relative viability (NCI-H2228; first compound 0.03162 µM)?
Its relative viability is 0.395.

And the relative viability (NCI-H2228; first compound 0.1 µM)?
Its relative viability is 0.406.

And the relative viability (NCI-H1993; first compound 0.001 µM)?
The relative viability was 0.688.

And the relative viability (NCI-H1993; first compound 0.003162 µM)?
Its relative viability is 0.705.

And the relative viability (NCI-H1993; first compound 0.01 µM)?
The relative viability was 0.762.

What about the relative viability (NCI-H1993; first compound 0.03162 µM) of the same molecule?
The relative viability was 0.624.

And the relative viability (NCI-H1993; first compound 0.1 µM)?
Its relative viability is 0.851.

What about the relative viability (HCC-366; first compound 0.001 µM) of the same molecule?
The relative viability was 0.244.

What about the relative viability (HCC-366; first compound 0.003162 µM) of the same molecule?
The relative viability was 0.379.

And the relative viability (HCC-366; first compound 0.01 µM)?
The relative viability was 0.396.

And the relative viability (HCC-366; first compound 0.03162 µM)?
The relative viability was 0.36.

What about the relative viability (HCC-366; first compound 0.1 µM) of the same molecule?
The relative viability was 0.303.

And the relative viability (COR-L 105; first compound 0.001 µM)?
The relative viability was 0.396.

What about the relative viability (COR-L 105; first compound 0.003162 µM) of the same molecule?
The relative viability was 0.413.

And the relative viability (COR-L 105; first compound 0.01 µM)?
The relative viability was 0.28.

And the relative viability (COR-L 105; first compound 0.03162 µM)?
Its relative viability is 0.399.

And the relative viability (COR-L 105; first compound 0.1 µM)?
The relative viability was 0.391.

What about the relative viability (SK-MES-1; first compound 0.001 µM) of the same molecule?
Its relative viability is 0.347.

What about the relative viability (SK-MES-1; first compound 0.003162 µM) of the same molecule?
Its relative viability is 0.298.

And the relative viability (SK-MES-1; first compound 0.01 µM)?
Its relative viability is 0.313.

And the relative viability (SK-MES-1; first compound 0.03162 µM)?
The relative viability was 0.377.

What about the relative viability (SK-MES-1; first compound 0.1 µM) of the same molecule?
The relative viability was 0.32.

What about the relative viability (NCI-H2085; first compound 0.001 µM) of the same molecule?
Its relative viability is 0.525.

What about the relative viability (NCI-H2085; first compound 0.003162 µM) of the same molecule?
Its relative viability is 0.489.

And the relative viability (NCI-H2085; first compound 0.01 µM)?
The relative viability was 0.536.

What about the relative viability (NCI-H2085; first compound 0.03162 µM) of the same molecule?
Its relative viability is 0.498.

And the relative viability (NCI-H2085; first compound 0.1 µM)?
The relative viability was 0.393.

What about the relative viability (NCI-H1355; first compound 0.001 µM) of the same molecule?
The relative viability was 0.423.

And the relative viability (NCI-H1355; first compound 0.003162 µM)?
Its relative viability is 0.457.

What about the relative viability (NCI-H1355; first compound 0.01 µM) of the same molecule?
Its relative viability is 0.486.

What about the relative viability (NCI-H1355; first compound 0.03162 µM) of the same molecule?
The relative viability was 0.494.

What about the relative viability (NCI-H1355; first compound 0.1 µM) of the same molecule?
The relative viability was 0.468.

What about the relative viability (EPLC-272H; first compound 0.001 µM) of the same molecule?
The relative viability was 0.348.

What about the relative viability (EPLC-272H; first compound 0.003162 µM) of the same molecule?
The relative viability was 0.345.

And the relative viability (EPLC-272H; first compound 0.03162 µM)?
The relative viability was 0.291.

What about the relative viability (EPLC-272H; first compound 0.1 µM) of the same molecule?
Its relative viability is 0.39.

And the relative viability (HCC-827; first compound 0.001 µM)?
The relative viability was 0.56.

What about the relative viability (HCC-827; first compound 0.003162 µM) of the same molecule?
The relative viability was 0.451.

And the relative viability (HCC-827; first compound 0.03162 µM)?
The relative viability was 0.435.

What about the relative viability (HCC-827; first compound 0.1 µM) of the same molecule?
Its relative viability is 0.469.

And the relative viability (NCI-H2087; first compound 0.001 µM)?
Its relative viability is 0.219.

And the relative viability (NCI-H2087; first compound 0.003162 µM)?
The relative viability was 0.204.

And the relative viability (NCI-H2087; first compound 0.01 µM)?
Its relative viability is 0.213.

What about the relative viability (NCI-H2087; first compound 0.03162 µM) of the same molecule?
Its relative viability is 0.187.

What about the relative viability (NCI-H2087; first compound 0.1 µM) of the same molecule?
The relative viability was 0.201.
